{"source": "patent US20160115540A1", "about": "“PRODRUGS AND DRUGS” (Biogen MA Inc., priority 2013, published 2016)", "system": "brain", "test": "Transcriptional profiling, multi-dosing regimen, naïve mice: brain", "type": "in vivo", "details": "for FC: BRAIN_HEMI, 100MMF-vs-Veh", "experimental": "In vivo, DMF is rapidly metabolized to monomethyl fumarate (MMF). […] Animals were exposed to CO2 and whole blood collected via cardiac puncture. Two 100 μl aliquots of whole blood were collected in 1.5 mL microcentrifuge tubes and snap frozen in liquid nitrogen. Peripheral (liver, spleen, kidney and jejunum) and CNS brain (cerebellum, hippocampus, striatum and cortex) tissues were harvested and snap frozen in liquid nitrogen, with special care taken to collect tissues of similar size and from the same location. All samples were stored at -80° C. until RNA extraction was conducted. For RNA preparation, frozen tissues were placed in 2 mL RNAse-free 96-well blocks with 1.5 mL QIAzol Lysis Reagent (QIAgen) and a 3.2 mm stainless steel bead (BioSpec Products, Bartlesville, Okla.). Tissues were disrupted for four cycles of 45 seconds in a Mini-Beadbeater (Biospec Products). RNA was extracted in chloroform and the aqueous phase was mixed with an equal volume of 70% ethanol. Extracted RNA was applied to RNeasy 96 plates and purified by the spin method according to the manufacturer's protocol (RNeasy 96 Universal Tissue Protocol, QIAgen, Hilden Germany). […] Two micrograms of biotin labeled […] probe were hybridized to Affymetrix GeneChip Affymetrix HT_MG-430_PM plate arrays with modified conditions as described in […] et al. Washing and staining of the hybridized arrays were completed as described in the GeneChip Expression analysis technical manual for HT plate arrays using the Genechip® Array Station (Affymetrix, Santa Clara, Calif.) with modifications as described in […] et al. The processed GeneChip® plate arrays were scanned using GeneTitan scanner (Affymetrix, Santa Clara, Calif.). Affymetrix scans were subject to quality control (QC) measures. These tests included a visual inspection of the distribution of raw signal intensities and an assessment of RNA degradation, relative log expression (RLE), and normalized unsealed standard error (NUSE). All sample scans that passed these QC metrics were included in the analysis. All CEL files were subjected to GC-content-based Robust Multi-array Average (GCRMA) normalization (version 2.20.0) (Irizarry R A, et al. Nucleic Acids Res 2003; 31:e15; Li C, et al. […] Stat Appl Genet Mol Biol 2004; 3:Article3). […] Springer Science+Business Media 2005). Changes in gene expression were studied by applying a linear modeling approach to fit gene expression levels according to the defined groups of samples (e.g. DMF-, MMF-, and Vehicle-treated animals) and Bayesian posterior error analysis as implemented by Smyth (Smyth G K. Stat Appl Genet Mol Biol 2004; 3:Article3). The comparisons considered included: DMF-vs-MMF, DMF-vs-Vehicle, and MMF-vs-Vehicle. […] Very few DEGs are observed in blood and tissues derived from the central nervous system (brain, cerebellum, cortex, striatum, and spinal cord).", "note": "Structures can show the parent of a compound that is named as a salt.", "data": [{"smiles": "COC(=O)/C=C/C(=O)O", "note": "[MMF, monomethyl fumarate]", "values": [{"measurement": "FC", "setting": "0610037L13Rik 1429879_PM_at", "value": "−1.51"}, {"measurement": "FC", "setting": "1436646_PM_at (no gene symbol)", "value": "−1.53"}, {"measurement": "FC", "setting": "1437987_PM_at (no gene symbol)", "value": "−1.66"}, {"measurement": "FC", "setting": "1438259_PM_at (no gene symbol)", "value": "−1.59"}, {"measurement": "FC", "setting": "2310079F09Rik 1433201_PM_at", "value": 2.17}, {"measurement": "FC", "setting": "2610021A01Rik 1438786_PM_a_at", "value": "−1.90"}, {"measurement": "FC", "setting": "2610044O15Rik 1428693_PM_at", "value": "−1.52"}, {"measurement": "FC", "setting": "2900062L11Rik 1428333_PM_at", "value": "−1.50"}, {"measurement": "FC", "setting": "4930432O21Rik 1434625_PM_at", "value": "−1.66"}, {"measurement": "FC", "setting": "4930453N24Rik 1438553_PM_x_at", "value": "−1.61"}, {"measurement": "FC", "setting": "4933421E11Rik 1428162_PM_at", "value": "−1.50"}, {"measurement": "FC", "setting": "A730017C20Rik 1437528_PM_x_at", "value": "−2.06"}, {"measurement": "FC", "setting": "AI597468 1433897_PM_at", "value": "−1.51"}, {"measurement": "FC", "setting": "AI747699 1433914_PM_at", "value": "−2.28"}, {"measurement": "FC", "setting": "Abi1 1438506_PM_s_at", "value": "−2.04"}, {"measurement": "FC", "setting": "Acad9 1429581_PM_at", "value": "−1.55"}, {"measurement": "FC", "setting": "Akr1a4 1430123_PM_a_at", "value": "−1.75"}, {"measurement": "FC", "setting": "Aldh9a1 1436689_PM_a_at", "value": "−1.63"}, {"measurement": "FC", "setting": "Aldh18a1 1437325_PM_x_at", "value": "−1.51"}, {"measurement": "FC", "setting": "Ampd2 1438941_PM_x_at", "value": "−1.76"}, {"measurement": "FC", "setting": "Apex1 1437715_PM_x_at", "value": "−1.52"}, {"measurement": "FC", "setting": "Appl1 1436116_PM_x_at", "value": "−1.62"}, {"measurement": "FC", "setting": "Arhgap21 1428369_PM_s_at", "value": "−1.66"}, {"measurement": "FC", "setting": "Atp13a5 1436411_PM_at", "value": "−1.51"}, {"measurement": "FC", "setting": "Atxn10 1438653_PM_x_at", "value": "−1.69"}, {"measurement": "FC, Depp (1433836_PM_a_at)", "setting": "BrainHemi, multi-dosing, MMF-vs-Vehicle", "value": "−1.01"}, {"measurement": "FC", "setting": "Btg1 /// LOC100047353 1437455_PM_a_at", "value": "−1.55"}, {"measurement": "FC", "setting": "Cadm2 1429211_PM_at", "value": "−1.76"}, {"measurement": "FC", "setting": "Cadm2 1435146_PM_s_at", "value": "−2.25"}, {"measurement": "FC", "setting": "Cherp 1436885_PM_a_at", "value": "−1.99"}, {"measurement": "FC", "setting": "Chuk 1428210_PM_s_at", "value": "−1.68"}, {"measurement": "FC", "setting": "Clcc1 1436390_PM_a_at", "value": "−1.64"}, {"measurement": "FC", "setting": "Clvs1 1433906_PM_at", "value": "−1.54"}, {"measurement": "FC", "setting": "Cpt1a 1434866_PM_x_at", "value": "−1.81"}, {"measurement": "FC", "setting": "Cttnbp2 1435435_PM_at", "value": "−1.75"}, {"measurement": "FC", "setting": "Dab2 1429693_PM_at", "value": 1.53}, {"measurement": "FC", "setting": "Ddx5 1438371_PM_x_at", "value": "−1.52"}, {"measurement": "FC", "setting": "Derl1 1437723_PM_s_at", "value": "−1.51"}, {"measurement": "FC", "setting": "Dnpep 1438557_PM_x_at", "value": "−1.50"}, {"measurement": "FC", "setting": "Enoph1 1437327_PM_x_at", "value": "−1.62"}, {"measurement": "FC", "setting": "Fam13c 1436761_PM_s_at", "value": "−1.83"}, {"measurement": "FC", "setting": "Fbxo11 1434108_PM_at", "value": "−1.50"}, {"measurement": "FC", "setting": "Gm5256 /// Gm5529 /// Slc25a5 1438360_PM_x_at", "value": "−1.53"}, {"measurement": "FC", "setting": "Gm5256 /// Gm5529 /// Slc25a5 1438922_PM_x_at", "value": "−1.51"}, {"measurement": "FC", "setting": "Gm6159 /// Hnrnpr 1437526_PM_x_at", "value": "−1.61"}, {"measurement": "FC", "setting": "Gm11793 /// Hnrnpf 1437099_PM_x_at", "value": "−1.53"}, {"measurement": "FC", "setting": "Gm13342 /// Gm15776 /// Gm3150 /// Gng5 /// LOC100044719 1436946_PM_s_at", "value": "−1.70"}, {"measurement": "FC", "setting": "Gm14288 1429712_PM_at", "value": "−1.68"}, {"measurement": "FC", "setting": "Gns 1433488_PM_x_at", "value": "−2.01"}, {"measurement": "FC", "setting": "Gria4 1436772_PM_at", "value": "−1.57"}, {"measurement": "FC", "setting": "Hadhb 1437172_PM_x_at", "value": "−1.86"}, {"measurement": "FC", "setting": "Hbxip 1436152_PM_a_at", "value": "−1.65"}, {"measurement": "FC", "setting": "Higd1c /// Mettl7a1 /// Mettl7a2 1434150_PM_a_at", "value": "−1.60"}, {"measurement": "FC", "setting": "Hnrpdl 1428224_PM_at", "value": "−1.60"}, {"measurement": "FC", "setting": "Hs3st2 1438624_PM_x_at", "value": "−1.86"}, {"measurement": "FC", "setting": "Impa1 1436848_PM_x_at", "value": "−1.55"}, {"measurement": "FC", "setting": "Ing1 1433267_PM_at", "value": 1.53}, {"measurement": "FC", "setting": "Ipo4 1436420_PM_a_at", "value": "−1.64"}, {"measurement": "FC", "setting": "Itgb8 1436223_PM_at", "value": "−1.59"}, {"measurement": "FC", "setting": "LOC100047324 /// Sesn1 1438931_PM_s_at", "value": "−1.97"}, {"measurement": "FC", "setting": "Laptm4b 1436915_PM_x_at", "value": "−1.68"}, {"measurement": "FC", "setting": "Lasp1 1438634_PM_x_at", "value": "−1.50"}, {"measurement": "FC", "setting": "Mettl9 1438171_PM_x_at", "value": "−1.63"}, {"measurement": "FC", "setting": "Mthfd2l 1429599_PM_a_at", "value": "−1.71"}, {"measurement": "FC", "setting": "Ncoa2 1435233_PM_at", "value": "−1.55"}, {"measurement": "FC", "setting": "Ndufb6 1434056_PM_a_at", "value": "−1.56"}, {"measurement": "FC", "setting": "Nelf 1436959_PM_x_at", "value": "−1.65"}, {"measurement": "FC", "setting": "Nxph1 1436718_PM_at", "value": "−1.56"}, {"measurement": "FC", "setting": "Paics 1436298_PM_x_at", "value": "−1.57"}, {"measurement": "FC", "setting": "Paqr3 1429216_PM_at", "value": "−1.56"}, {"measurement": "FC", "setting": "Phyhipl 1437062_PM_s_at", "value": "−1.69"}, {"measurement": "FC", "setting": "Pisd-ps1 /// Pisd-ps3 1436944_PM_x_at", "value": "−2.43"}]}]}
